Source: patent publication US8741659B2, “Composition for measuring the binding affinity between nucleic acid and test substance, and use thereof” (Osaka University, priority 2007, dated 2014)

Experiments:
[1] = system: RRE; assay: Fluorescence titration / evaluation of binding with RRE; parameters: species or system HIV-1
Experimental: In this Example, binding between RRE and X2S was evaluated by a method identical to the method in Example 2.
The […] of RRE is shown in SEQ ID NO: 8. […] RRE was purchased from Hokkaido System Science Co., Ltd.
Firstly, the X2S solution obtained in Example 1 was diluted with a cacodylate buffer solution (sodium cacodylate: 10 mM, pH 7.0; NaCl: 100 mM), so that a concentration of X2S became 2 μM. To the 2-μM X2S solution thus obtained, RRE was added in steps at 0 μM, 1 μM, 2 μM, 3 μM, 4 μM, 5 μM, 6 μM, and 8 μM. Further, a fluorescence intensity of the 2-μM X2S solution was measured at each concentration. The fluorescence intensity was measured in the same manner as in Example 2.
FIG. 7 is a view illustrating a result of evaluation of binding between X2S and RRE. In FIG. 7, the horizontal axis represents the fluorescence wavelength, whereas the vertical axis represents the fluorescence intensity. […] Other figures include such arrows for results of measurements of fluorescence intensities.
FIG. 8 is a view plotting the fluorescence intensities at a measured wavelength of 453 nm shown in the result illustrated in FIG. 7. The horizontal axis represents the concentration of RRE, whereas the vertical axis represents the fluorescence intensity.
Then, changes in fluorescence intensities were observed.
Firstly, X2S, X2S(3), X2S(4), X2S(5), X2S(2-Me), and 3,6-X2S(2) were respectively mixed with cacodylate buffer solutions (sodium cacodylate: 10 mM, pH 7.0; NaCl: 100 mM) each at 1.0 μM, so that solutions of the respective compounds were obtained. RRE used in this Example was the same as that used in Example 4. RRE was added to each of the solutions of the respective compounds in steps at 0.0 μM, 0.2 μM, 0.4 μM, 0.8 μM, and 1.0 μM.
Each of the solutions to which RRE was added was irradiated with light, and a fluorescence intensity was measured. A device used for measuring the fluorescence intensity was the same as that used in Example 13. A variation in a slit width was also the same as that in Example 14.
FIG. 39 is a graph illustrating a relationship between a concentration of RRE added and a fluorescence intensity of each compound. Further, FIG. 39 is also a view plotting the fluorescence intensities of the respective fluorescence peaks shown in the results illustrated in FIGS. 33 to 38. FIG. 40 is a view plotting residual fluorescence intensities (%) which were obtained based on the results shown in FIGS. 33 to 38, assuming that the fluorescence intensities of the respective fluorescence peaks observed at a concentration of 0.0 μM of RRE were 100%. In each of FIGS. 39 and 40, the horizontal axis represents the concentration of the RNA. In FIG. 39, the vertical axis represents the fluorescence intensity. In FIG. 40, the vertical axis represents the residual fluorescence intensity (%).
FIG. 41 is a view plotting values obtained by dividing (i) the residual fluorescence intensities (%) obtained in the case involving use of the double strand RNA by (ii) the residual fluorescence intensities (%) obtained in the case involving use of RRE. That is, FIG. 41 is a view plotting values obtained by dividing (i) the residual fluorescence intensity (%) shown in FIG. 32 by (ii) the residual fluorescence intensities (%) shown in FIG. 40. FIG. 42 is a view plotting values obtained by subtracting (i) the residual fluorescence intensities (%) obtained in the case involving use of RRE from (ii) the residual fluorescence intensities (%) obtained in the case involving use of the double strand RNA. That is, FIG. 42 is a view plotting values obtained by subtracting (i) the residual fluorescence intensities (%) shown in FIG. 40 from (ii) the residual fluorescence intensities (%) shown in FIG. 32.
In this Example, 1-Pyrenemethanamide, hydrochloride was caused to bind to a double strand RNA or RRE. Then, a change in a fluorescence intensity was observed. […]

[2] = system: single strand RNA (ssRNA), SEQ ID NO: 7; assay: Binding between X2S and single strand RNA
Experimental: In this Example, binding between X2S and a single strand RNA (hereinafter, referred to as “ssRNA”) was evaluated. Specifically, the evaluation was performed in the same manner as that described in Example 2. However, the evaluation performed in this Example differed from that performed in Example 2 in the following points: Instead of the double strand RNA, an ssRNA was used; The ssRNA was added in steps at 0 μM, 1 μM, 2 μM, 3 μM, 4 μM, 5 μM, 6 μM, 7 μM, and 8 μM; The ssRNA was purchased from: Hokkaido System Science Co., Ltd. The sequence of the ssRNA is shown in SEQ ID NO: 7.
FIG. 18 is a view illustrating the result of the evaluation of binding between X2S and the ssRNA. The horizontal axis represents the fluorescence wavelength, whereas the vertical axis represents the fluorescence intensity.

**Q.** What does the source list for `NCCOc1ccc2oc3ccc(OCCN)cc3c(=O)c2c1` [X2S, 2,7-bis(2-aminoethoxy)xanthen-9-one]?
**A.** reduction of fluorescence intensity (residual fluorescence intensity) on binding RRE ([1]; 1.0 μM compound, RRE 0.0-1.0 μM): particularly high reduction rates; fluorescence of X2S on binding to RRE ([1]; 2 μM X2S, RRE 0-8 μM, 453 nm): fluorescence of X2S is quenched; difference in quenching efficiency between RRE and double strand RNA ([1]; FIGS. 41 and 42, 1.0 μM compound): greatest; amount of change of fluorescence intensity ([2]; 0 μM versus 8 μM ssRNA): approximately 50%; binding to ssRNA ([2]; ssRNA 0-8 μM): binds to an ssRNA
